Active and inactive are the calls of the source.
Legend:
[1] = biological target: Cystic fibrosis transmembrane conductance regulator/Golgi-associated PDZ and coiled-coil motif-containing protein (Homo sapiens, UniProt P13569+Q9HD26); test: potency against CAL PDZ-peptide interaction – biochemical, fluorescence polarization, Cerulean-tagged CAL PDZ, cherry-picks, dose response (AID 504773)
[2] = biological target: T1, Long-chain-fatty-acid--AMP ligase FadD28 (Mycobacterium tuberculosis, UniProt P9WQ59); test: Fluorescence polarization aasay to screen for inhibitors that compete for the binding of FadD28 to a bisubstrate Measured in Biochemical System Using Plate Reader - 2147-01_Inhibitor_Dose_CherryPick_Activity.; type: functional, Mycobacterium tuberculosis H37Rv
T1 sequence (P9WQ59 whole entry): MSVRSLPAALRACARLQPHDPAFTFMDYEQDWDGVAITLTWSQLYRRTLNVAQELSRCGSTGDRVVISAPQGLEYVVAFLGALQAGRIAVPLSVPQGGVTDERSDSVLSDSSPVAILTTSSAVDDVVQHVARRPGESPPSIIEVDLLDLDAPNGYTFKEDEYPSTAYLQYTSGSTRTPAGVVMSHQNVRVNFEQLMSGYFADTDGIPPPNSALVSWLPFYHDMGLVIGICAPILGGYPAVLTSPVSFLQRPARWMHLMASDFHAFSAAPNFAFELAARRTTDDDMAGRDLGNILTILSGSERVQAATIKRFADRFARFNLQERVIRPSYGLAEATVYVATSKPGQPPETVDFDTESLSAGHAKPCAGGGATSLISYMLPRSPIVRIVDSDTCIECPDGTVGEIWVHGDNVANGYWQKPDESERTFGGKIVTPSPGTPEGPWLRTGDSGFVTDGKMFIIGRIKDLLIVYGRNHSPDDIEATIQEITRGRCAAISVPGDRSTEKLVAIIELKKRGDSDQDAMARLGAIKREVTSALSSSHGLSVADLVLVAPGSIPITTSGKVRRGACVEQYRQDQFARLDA

[3] = biological target: Protein Rev (Human immunodeficiency virus type 1 group M subtype B (isolate HXB2)(HIV-1), UniProt P04618); test: blockers of HIV Rev/RRE RNA complex – biochemical, fluorescence polarization, HIV-1, dose response (AID 434976); parameters: species or system Human immunodeficiency virus 1
Chain of Protein Rev (P04618 whole entry): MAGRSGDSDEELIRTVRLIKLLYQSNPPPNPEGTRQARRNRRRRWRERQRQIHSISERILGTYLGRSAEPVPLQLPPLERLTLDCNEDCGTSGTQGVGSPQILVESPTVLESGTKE

[4] = biological target: Female germline-specific tumor suppressor gld-1 (Caenorhabditis elegans, UniProt Q17339); test: blockers of GLD-1/TGE RNA complex formation – biochemical, fluorescence polarization, C. elegans, dose response (AID 2802);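 also: fluorescence polarization of labeled TGE RNA bound by purified gld-1 protein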
Chain of Female germline-specific tumor suppressor gld-1 (Q17339 whole entry, the tested form may be a part): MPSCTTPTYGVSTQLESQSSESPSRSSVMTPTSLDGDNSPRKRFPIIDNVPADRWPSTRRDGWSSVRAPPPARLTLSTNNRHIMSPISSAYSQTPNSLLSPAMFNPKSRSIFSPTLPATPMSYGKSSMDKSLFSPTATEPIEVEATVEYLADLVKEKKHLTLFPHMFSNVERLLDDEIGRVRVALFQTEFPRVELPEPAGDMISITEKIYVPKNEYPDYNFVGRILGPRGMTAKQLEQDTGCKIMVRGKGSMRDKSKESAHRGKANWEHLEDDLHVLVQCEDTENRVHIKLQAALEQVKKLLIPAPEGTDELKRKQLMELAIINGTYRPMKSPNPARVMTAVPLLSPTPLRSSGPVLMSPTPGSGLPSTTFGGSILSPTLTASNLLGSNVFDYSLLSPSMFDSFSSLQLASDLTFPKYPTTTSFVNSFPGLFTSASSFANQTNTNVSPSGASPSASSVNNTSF

[5] = biological target: T2, Fibrinogen beta chain (Homo sapiens, UniProt P02675); test: Fluorescence polarization-based biochemical high throughput dose response assay to identify inhibitors that disrupt the binding of a cyclic peptide (Tn7) to the fibrin proteolytic product D-Dimer and fragment E complex [DD(E )].
T2 sequence (P02675 whole entry, the tested form may be a part): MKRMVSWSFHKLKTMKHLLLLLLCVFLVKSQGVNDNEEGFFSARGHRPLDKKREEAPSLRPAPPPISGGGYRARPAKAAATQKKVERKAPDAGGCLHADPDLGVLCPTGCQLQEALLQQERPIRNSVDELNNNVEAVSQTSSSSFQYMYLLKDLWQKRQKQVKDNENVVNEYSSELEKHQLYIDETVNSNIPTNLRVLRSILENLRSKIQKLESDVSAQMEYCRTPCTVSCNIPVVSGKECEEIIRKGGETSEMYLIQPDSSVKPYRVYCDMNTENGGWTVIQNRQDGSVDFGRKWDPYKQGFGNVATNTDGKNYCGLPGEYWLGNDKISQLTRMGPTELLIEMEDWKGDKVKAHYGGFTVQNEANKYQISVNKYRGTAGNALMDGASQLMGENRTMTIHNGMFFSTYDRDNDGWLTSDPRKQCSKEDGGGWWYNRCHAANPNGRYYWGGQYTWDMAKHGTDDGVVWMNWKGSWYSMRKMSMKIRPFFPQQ

[6] = biological target: T2, Fibrinogen beta chain; test: Fluorescence polarization-based biochemical high throughput dose response assay to identify inhibitors that disrupt the binding of a cyclic peptide (Tn6) to the fibrin proteolytic product D-Dimer and fragment E complex [DD(E )].
[7] = biological target: Protein S100-A4 (Homo sapiens, UniProt P26447); test: human S100A4 peptide interaction inhibition curves – biochemical, fluorescence polarization, cherry-picked hits, dose response (AID 687001); type: functional
Chain of Protein S100-A4 (P26447 whole entry): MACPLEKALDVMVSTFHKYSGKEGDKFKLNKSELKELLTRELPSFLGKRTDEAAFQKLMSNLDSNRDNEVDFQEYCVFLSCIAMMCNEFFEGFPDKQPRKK

[8] = biological target: T3, Histone-lysine N-methyltransferase NSD2 (Homo sapiens, UniProt O96028); type: biochemical
T3 sequence (O96028 whole entry): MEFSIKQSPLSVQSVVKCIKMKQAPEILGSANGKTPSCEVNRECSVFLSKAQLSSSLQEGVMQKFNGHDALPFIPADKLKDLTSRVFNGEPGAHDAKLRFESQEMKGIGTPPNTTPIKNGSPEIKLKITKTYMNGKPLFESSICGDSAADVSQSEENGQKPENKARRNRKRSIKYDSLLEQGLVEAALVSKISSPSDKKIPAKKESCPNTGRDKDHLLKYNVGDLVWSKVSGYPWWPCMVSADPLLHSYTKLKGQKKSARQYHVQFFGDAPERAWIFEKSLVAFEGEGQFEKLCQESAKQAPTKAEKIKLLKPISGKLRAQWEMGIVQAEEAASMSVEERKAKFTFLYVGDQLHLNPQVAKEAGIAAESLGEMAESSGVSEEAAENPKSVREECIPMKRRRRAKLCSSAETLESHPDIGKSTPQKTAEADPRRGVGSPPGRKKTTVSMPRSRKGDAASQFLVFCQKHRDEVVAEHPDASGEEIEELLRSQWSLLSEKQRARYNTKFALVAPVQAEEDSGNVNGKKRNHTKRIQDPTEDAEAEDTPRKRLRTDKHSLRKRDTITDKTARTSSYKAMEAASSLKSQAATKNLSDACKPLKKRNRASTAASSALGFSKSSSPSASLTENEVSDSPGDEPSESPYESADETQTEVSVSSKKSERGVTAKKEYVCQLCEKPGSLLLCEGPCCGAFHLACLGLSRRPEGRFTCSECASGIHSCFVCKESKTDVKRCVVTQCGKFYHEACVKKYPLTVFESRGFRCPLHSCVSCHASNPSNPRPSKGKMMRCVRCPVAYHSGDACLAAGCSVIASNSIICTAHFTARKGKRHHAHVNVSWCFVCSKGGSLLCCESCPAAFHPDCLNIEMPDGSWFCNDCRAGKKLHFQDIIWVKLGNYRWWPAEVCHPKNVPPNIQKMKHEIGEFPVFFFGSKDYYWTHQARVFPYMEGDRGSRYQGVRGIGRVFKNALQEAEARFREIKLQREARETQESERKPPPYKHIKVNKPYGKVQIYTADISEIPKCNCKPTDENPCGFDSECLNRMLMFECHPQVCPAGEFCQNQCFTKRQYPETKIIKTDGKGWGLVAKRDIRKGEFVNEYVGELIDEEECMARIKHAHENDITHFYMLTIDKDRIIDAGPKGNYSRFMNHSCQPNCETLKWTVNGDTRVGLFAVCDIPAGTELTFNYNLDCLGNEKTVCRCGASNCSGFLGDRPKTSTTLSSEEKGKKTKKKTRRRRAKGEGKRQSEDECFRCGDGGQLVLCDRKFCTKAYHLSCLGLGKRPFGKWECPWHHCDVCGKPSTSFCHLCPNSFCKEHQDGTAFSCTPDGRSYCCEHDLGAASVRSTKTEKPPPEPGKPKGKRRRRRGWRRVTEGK

[9] = biological target: T4, RNA-binding protein pos-1 (Caenorhabditis elegans, UniProt G5EF15); test: disruptors of C. elegans POS-1 RNA interaction – biochemical, fluorescence polarization, dose response (AID 1964);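 also: purified POS-1 fused to maltose binding protein made in E. coli; potency of compounds blocking POS-1 binding to fluorescent RNA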
T4 sequence (G5EF15 whole entry): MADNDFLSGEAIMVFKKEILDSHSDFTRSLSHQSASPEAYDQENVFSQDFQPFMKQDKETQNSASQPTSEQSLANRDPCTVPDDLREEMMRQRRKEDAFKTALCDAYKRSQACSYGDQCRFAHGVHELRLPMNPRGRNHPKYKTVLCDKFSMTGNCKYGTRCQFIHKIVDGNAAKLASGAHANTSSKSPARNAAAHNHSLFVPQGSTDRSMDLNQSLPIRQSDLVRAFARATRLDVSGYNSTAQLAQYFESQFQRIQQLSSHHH

[10] = biological target: T5, Zinc finger protein mex-5 (Caenorhabditis elegans, UniProt Q9XUB2); test: potency of MEX-5 RNA-binding blockers – biochemical, C. elegans, fluorescence polarization, dose response (AID 1960)
T5 sequence (Q9XUB2 whole entry): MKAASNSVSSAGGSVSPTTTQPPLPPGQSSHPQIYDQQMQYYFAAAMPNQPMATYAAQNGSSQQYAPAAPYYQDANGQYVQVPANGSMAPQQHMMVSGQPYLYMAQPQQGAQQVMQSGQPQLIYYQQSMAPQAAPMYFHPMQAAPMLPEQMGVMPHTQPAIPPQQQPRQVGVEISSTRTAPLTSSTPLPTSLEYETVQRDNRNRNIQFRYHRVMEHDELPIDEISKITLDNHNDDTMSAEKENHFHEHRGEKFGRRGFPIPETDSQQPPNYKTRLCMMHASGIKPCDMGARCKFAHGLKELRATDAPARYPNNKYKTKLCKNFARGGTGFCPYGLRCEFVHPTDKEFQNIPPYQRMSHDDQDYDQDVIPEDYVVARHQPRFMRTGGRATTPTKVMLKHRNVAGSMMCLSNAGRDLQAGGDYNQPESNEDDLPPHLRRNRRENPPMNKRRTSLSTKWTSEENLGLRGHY

Chain of Cystic fibrosis transmembrane conductance regulator/Golgi-associated PDZ and coiled-coil motif-containing protein (P13569 whole entry, other chains not shown): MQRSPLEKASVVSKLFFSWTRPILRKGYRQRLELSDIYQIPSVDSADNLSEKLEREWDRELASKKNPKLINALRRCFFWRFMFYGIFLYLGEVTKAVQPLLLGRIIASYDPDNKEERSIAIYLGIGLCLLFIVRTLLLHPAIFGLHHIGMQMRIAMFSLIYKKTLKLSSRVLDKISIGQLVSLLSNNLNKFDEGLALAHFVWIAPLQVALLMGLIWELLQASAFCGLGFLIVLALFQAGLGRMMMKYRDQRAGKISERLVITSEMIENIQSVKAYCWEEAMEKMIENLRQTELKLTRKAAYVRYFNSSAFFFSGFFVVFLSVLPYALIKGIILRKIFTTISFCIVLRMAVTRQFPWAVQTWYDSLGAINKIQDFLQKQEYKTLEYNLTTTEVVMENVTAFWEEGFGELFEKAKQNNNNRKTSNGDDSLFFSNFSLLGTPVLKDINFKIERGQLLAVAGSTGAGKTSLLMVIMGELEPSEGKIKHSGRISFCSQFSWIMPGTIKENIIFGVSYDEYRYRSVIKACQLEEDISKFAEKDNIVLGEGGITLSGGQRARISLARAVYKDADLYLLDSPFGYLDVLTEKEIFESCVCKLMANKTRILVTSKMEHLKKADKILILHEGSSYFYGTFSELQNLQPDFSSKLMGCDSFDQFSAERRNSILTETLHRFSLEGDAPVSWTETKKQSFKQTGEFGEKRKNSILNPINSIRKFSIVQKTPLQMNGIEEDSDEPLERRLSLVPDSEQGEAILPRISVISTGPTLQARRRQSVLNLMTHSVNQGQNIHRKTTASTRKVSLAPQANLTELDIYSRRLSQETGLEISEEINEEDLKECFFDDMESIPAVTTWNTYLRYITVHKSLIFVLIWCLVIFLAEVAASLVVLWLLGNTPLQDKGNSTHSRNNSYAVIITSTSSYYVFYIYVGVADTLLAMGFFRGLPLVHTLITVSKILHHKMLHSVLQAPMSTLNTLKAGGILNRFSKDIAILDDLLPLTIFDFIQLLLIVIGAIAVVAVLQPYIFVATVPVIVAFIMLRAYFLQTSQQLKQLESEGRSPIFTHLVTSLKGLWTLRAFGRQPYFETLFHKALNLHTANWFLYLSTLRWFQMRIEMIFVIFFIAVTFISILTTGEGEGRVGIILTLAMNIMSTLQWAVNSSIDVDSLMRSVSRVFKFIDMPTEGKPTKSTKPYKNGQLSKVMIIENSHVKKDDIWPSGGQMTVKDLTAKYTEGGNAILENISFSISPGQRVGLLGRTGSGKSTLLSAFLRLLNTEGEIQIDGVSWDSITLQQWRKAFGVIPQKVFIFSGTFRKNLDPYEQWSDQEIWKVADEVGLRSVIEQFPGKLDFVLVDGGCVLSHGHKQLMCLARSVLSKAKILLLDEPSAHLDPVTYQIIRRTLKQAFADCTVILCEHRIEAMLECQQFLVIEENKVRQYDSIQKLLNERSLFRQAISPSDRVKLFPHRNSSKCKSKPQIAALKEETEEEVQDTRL

Cc1sc(NC(=O)c2ccco2)c(C(Nc2ccccn2)c2ccccc2)c1C (stereo not given)
AC50 [1]: 60.1 µM (active)

Cn1c(=O)cc2c3c(c(N4CCCCC4)ccc31)C(=O)c1ccccc1-2
AC50 [2]: 11.8 µM (active) | IC50 [3]: 14.2 µM (not active) | IC50 [4]: 4.96 µM (active) | IC50 [5]: > 83.3 µM (inactive) | IC50 [6]: > 27.8 µM (inactive) | AC50 [7]: 1.72 µM (active) | AC50 [8]: 12.3 µM (active) | EC50 [9]: > 300 µM (inconclusive) | EC50 [10]: 25.9 µM (active)

— ChEMBL document CHEMBL1201862, “PubChem BioAssay data set” (2004)
